Laboratory results: US4820718A, “N-alkyl-(2- or 5-substituted-2-methoxycarbonyl aminoalkyl furanyl)-substituted cyclimmonium salts and use thereof in PAF inhibition” (Sandoz Pharm. Corp., priority 1987, dated 1989)
pIC50: −log10 of the molar value.

Experiments:
[1] = test system: PAF-induced hypotension; assay: PAF-induced hypotension test (Test D); format: in vivo, Wistar rat; settings: for decrease in blood pressure: within 10 sec.; for ED50: Rattus norvegicus, iv, Test D, Wistar rats, PAF-induced blood pressure decrease
Method: Male Wistar rats, weighing approximately 300 gm, are anesthetized and their carotid arteries cannulated to enable their diastolic and systolic arterial blood pressure measurements to be recorded. PAF is then administered intravenously at either 100 or 500 ng/kg, and the blood pressure drop (within 10 sec.) and recovery time required to reach the pre-injection blood pressure level are measured. […] In order to measure the effectiveness of a compound for both the inhibition of blood pressure decreases and shortening of the recovery time, the test compound is administered intravenously over a range of between 5 and 7 dosage levels (1 or 2 test animals per dose) and between 1 and 5 minutes prior to the introduction of PAF to generate an ED50.

[2] = test system: PAF-induced human platelet aggregation; assay: Platelet Aggregation Inhibition Assay (PAIA test), PAF-induced human platelet aggregation in vitro; format: cell-based; settings: human platelet rich plasma
Method: All of the compounds of formula I are useful as platelet activating factor inhibitors as indicated by their ability to inhibit platelet activating factor (PAF)-induced human platelet aggregation in vitro according to the Platelet Aggregation Inhibition Assay test (PAIA test) as follows: Human subjects are kept aspirin free for one week and fasted overnight. Platelet rich plasma (PRP) is prepared by centrifugation (200×g.) of freshly drawn blood anti-coagulated with 0.38% sodium citrate (final concentration). Platelet count is adjusted to 250,000 per μl using platelet poor plasma (PPP) obtained by a second centrifugation (700×g.) of the blood sample. An aliquot (0.38 ml) of the PRP is dispensed into cuvettes and maintained at room temperature (22° C.) until used (but for not more than two hours). […] All aggregations are allowed to proceed for 6 minutes for the addition of the inducing agent. The aggregation response is quantitated by determining the area under the curve (AUC). The AUC calculated for the inducing agent alone is considered to be one hundred percent. The potential percent inhibition of the aggregation response is determined by dividing the AUC generated in the presence of the compound by the AUC of the inducing agent alone, multiplying by 100 and then subtracting from 100.

[3] = target: T1, Human Platelet PAF Receptor (Homo sapiens, UniProt P25105); assay: Human Platelet PAF Receptor Assay (Test A), inhibition of specific binding of [3H]-PAF to platelets; settings: [3H]-PAF specific binding
T1 construct: 500 μl of the above-described platelets; endogenous in cells; host or cells: washed human platelets from blood of healthy donors
T1 sequence (P25105 whole entry): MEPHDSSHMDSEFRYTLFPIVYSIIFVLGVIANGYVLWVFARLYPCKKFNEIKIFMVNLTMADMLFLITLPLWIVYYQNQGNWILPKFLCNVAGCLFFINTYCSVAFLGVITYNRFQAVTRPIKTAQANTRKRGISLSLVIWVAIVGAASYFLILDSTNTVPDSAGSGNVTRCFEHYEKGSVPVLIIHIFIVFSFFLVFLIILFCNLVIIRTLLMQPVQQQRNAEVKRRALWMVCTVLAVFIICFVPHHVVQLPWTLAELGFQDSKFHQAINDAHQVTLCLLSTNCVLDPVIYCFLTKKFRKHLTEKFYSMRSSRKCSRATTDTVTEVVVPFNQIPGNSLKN
Method: Platelet rich plasma (PRP) is prepared by centrifugation (250×g) of the blood for 20 minutes at room temperature. […] The platelets are resuspended at […] in TT/BSA containing 1.4 mM CaCl2.2H2 O and 0.7 mM MgCl2.6H2 O. All of the tests are conducted in duplicate and each of the test compounds is evaluated at concentrations of 100, 50, 1 and 0.1 μM. For each determination, the following solutions are mixed: 500 μl of the above-described platelets; 10 μl of [^3 H]-PAF (40,000 counts per minute (cpm) to a final concentration of […]); and either 10 μl of the test compound at 50× the desired final concentration, 10 μl of vehicle (total bound), or 10 μl of 1.85×10^-5 M cold PAF (non-specifically bound), […] The supernatants are then aspirated into the same scintillation vials as before and 10 ml, of Scintiverse II (a liquid scintillation cocktail) is added to and mixed therewith. The pellets are resuspended in 500 μl of Scintiverse II and mixed well. […] The amount of specific binding is calculated as the difference in cpm between the total bound [^3 H]-PAF and non-specifically bound [^3 H]-PAF. The percent inhibition of specific binding is determined by dividing the cpm specifically bound in the presence of the test compound by the cpm specifically bound in total, multiplying by 100 and then subtracting from 100. An IC50 (50% inhibitory concentration) value is generated by evaluating the test compound over the full concentration range.

[4] = test system: PAF-mediated broncho-constriction; assay: PAF-induced Pulmonary Inflation Pressure (PIP) Increase test (Test B); format: in vivo, guinea pig; settings: Cavia porcellus, iv, i.a., guinea pigs, PAF 100 ng/kg i.v., maximal PIP
Method: Male guinea pigs, weighing between 300 and 400 gm, are anesthetized, after which time trachea tube, carotid and jugular catheters are inserted. The test animal is then force ventilated employing a small animal Harvard respirator and the resistance to lung inflation (PIP) is measured utilizing a pressure transducer and recorder. The test compound is administered orally at 30 minutes prior to, intravenously (jugular) at 5 minutes prior to, or intraarterially at 1 to 5 minutes prior to the introduction of PAF. The PAF (C18 -Sandoz, Hanover) is dissolved in Tris-Tyrode's bovine serum albumin buffer and administered intravenously (jugular) at 100 ng/kg. Any blood pressure measurements taken are recorded from a transducer attached to the carotid catheter. Two responses are noted in the PIP recordings after the PAF is administered: (1) an immediate response which, in PAF-only treated test animals, averages out to between 70% and 80% more than the baseline PIP values. (This early response is also the greatest response and is, therefore, termed mazimal PIP); and (2) the long term (at least 30 minutes) PIP response which slowly decreases to baseline. A reading at 15 minutes after the administration of PAF is termed the endpoint PIP.

[5] = test system: PAF-mediated extravasation; assay: PAF-induced Extravasation test (Test C), hemoconcentration; format: in vivo, guinea pig; settings: Cavia porcellus, iv, i.a., guinea pigs, PAF 100 ng/kg i.v., increase in hematocrit
Method: (§1) Male guinea pigs, weighing between 300 and 400 gm, are anesthetized, after which time a femoral catheter is inserted. The test compound is administered intraarterially at one to five minutes prior to the introduction of PAF. The PAF (C18 -Sandoz, Hanover) is dissolved in Tris-Tyrode's bovine serum albumin buffer and administered intravenously (jugular) at 100 ng/kg.
(§2) To determine the hematocrit value, which is employed to index hemoconcentration and is defined as the percent of packed red blood cells in a sample of blood which is centrifuged to separate plasma from the cellular components, blood samples are collected in 50 μl heparinized hematocrit tubes. These samples are taken just prior to the injection of PAF, one minute subsequent to the injection of PAF and every two minutes thereafter until 15 minutes has lapsed subsequent to the injection of PAF. The tubes are then centrifuged and the percent of packed red blood cells (hematocrit) is measured (PAF induces a maximal increase in hematocrit at 5 to 7 minutes subsequent to the injection of PAF). The percent increase in hematocrit over the value prior to the injection of PAF is calculated. The hematocrit values obtained with the test compound are compared to the hemoconcentration values obtained with PAF alone and are expressed as percent inhibition of percent increase in hematocrit. From the values obtained, an ED50 is generated.

[6] = test system: PAF-induced bronchoconstriction; assay: Decrease in inhibition of bronchoconstriction over time (Test I); format: in vivo, guinea pig; settings: i.v., x times the ED50, time still inhibiting 50%
Method: Male guinea pigs, weighing between 300 and 400 gm, are anesthetized, after which time trachea tube, carotid and jugular catheters are inserted. The test animal is then force ventilated employing a small animal Harvard respirator and the resistance to lung inflation (PIP) is measured utilizing a pressure transducer and recorder. The test compound is administered orally at 30 minutes prior to, intravenously (jugular) at 5 minutes prior to, or intraarterially at 1 to 5 minutes prior to the introduction of PAF. The PAF (C18 -Sandoz, Hanover) is dissolved in Tris-Tyrode's bovine serum albumin buffer and administered intravenously (jugular) at 100 ng/kg. Any blood pressure measurements taken are recorded from a transducer attached to the carotid catheter. […] (This early response is also the greatest response and is, therefore, termed mazimal PIP); and (2) the long term (at least 30 minutes) PIP response which slowly decreases to baseline. A reading at 15 minutes after the administration of PAF is termed the endpoint PIP.
Thus, a decrease in inhibition of bronchoconstriction over time (Test I) can be measured by a modification of Test B described above wherein an amount of the test compound which is x times the ED50 for the compound is intravenously administered to the test animals. By observing the time at which the test compound still inhibits 50% of the bronchoconstriction caused by the PAF challenge, the rate of loss of the test compound can be determined employing the following equation: [formula]

[7] = test system: PAF-induced hemoconcentration; assay: Decrease in inhibition of hemoconcentration over time (Test J); format: in vivo, guinea pig; settings: i.v., x times the ED50, time still inhibiting 50%
Method: as §1, §2
Similarly, a decrease in inhibition of hemoconcentration over time (Test J) can be measured by a modification of Test C described above wherein an amount of the test compound which is x times the ED50 for the compound is intravenously administered to the test animals. By observing the time at which the test compound still inhibits 50% of the hemoconcentration caused by the PAF challenge, the rate of loss of the test compound can be determined employing the above equation.

| Compound | pIC50 [2] | pIC50 [3] | Rate of loss [6] [µg/kg/min] | Rate of loss [7] [µg/kg/min] | decrease in blood pressure ([1]; PAF 100 ng/kg i.v.) [%] | recovery time to pre-injection blood pressure level ([1]; PAF 500 ng/kg i.v.) [min] | decrease in blood pressure ([1]; PAF 500 ng/kg i.v.) [%] | ED50 [4] [µg/kg] | ED50 [5] [µg/kg] | ED50 [1] [µg/kg] |
| --- | --- | --- | --- | --- | --- | --- | --- | --- | --- | --- |
| 1-O-alkyl-2-acetyl-sn-glyceryl-3-phosphoryl-choline [PAF, reference compound] |  |  |  |  | 30 | 10 | 52 |  |  |  |
| CCCCCCCCCCCCCCCCCCNC(=O)OCC1(COC(=O)N(CCCCCc2cccc[n+]2CC)C(C)=O)CCCO1.[Cl-] (stereo not shown) [Example 4, 2-[5-[Acetyl[[tetrahydro-2-[[[[(octadecyl)-amino]carbonyl]oxy]methyl]furan-2-yl]methoxycarbonyl]amino]pentyl]-1-ethylpyridinium chloride] | 6.89 | 8.10 | 0.35 | 1.10 |  |  |  | 15 | 17 |  |
| CCCCCCCCCCCCCCCCCCN(C(C)=O)C(=O)OCC1(COC(=O)N(Cc2cccc[n+]2CC)C(C)=O)CCCO1 (stereo not shown) [Example 5, 2-[Acetyl[[tetrahydro-2-[[[[[acetyl(octadecyl)amino]carbonyl]oxy]methyl]furan-2-yl]methoxycarbonyl]aminomethyl]-1-ethylpyridinium chloride] | 7.32 | 8.70 |  |  |  |  |  | 4 | 4 | 4.5 |
| CCCCCCCCCCCCCCCCCCNC(=O)OCC1(COC(=O)N(Cc2cccc[n+]2CC)C(=O)C(C)(C)C)CCCO1 (stereo not shown) [Example 6, 2-[Trimethylacetyl[[tetrahydro-2-[[[[(octadecyl)amino]carbonyl]oxy]methyl]furan-2-yl]methoxycarbonyl]aminomethyl]-1-ethylpyridinium chloride] | 6.30 | 7.07 |  |  |  |  |  |  |  |  |
| CCCCCCCCCCCCCCCCCCNC(=O)OCC1(COC(=O)N(Cc2cccc[n+]2CC)C(=O)c2ccccc2)CCCO1 (stereo not shown) [Example 7, 2-[Benzoyl[[tetrahydro-2-[[[[(octadecyl)amino]carbonyl]oxy]methyl]furan-2-yl]-methoxycarbonyl]aminomethyl]-1-ethylpyridinium chloride] | 6.08 | 7.80 |  |  |  |  |  |  |  |  |
| CCCCCCCCCCCCCCCCCCOCC1(COC(=O)N(Cc2cccc[n+]2CC)C(C)=O)CCCO1 (stereo not shown) [Example 8, 2-[Acetyl[[tetrahydro-2-[(octadecyloxy)methyl]furan-2-yl]methoxycarbonyl]aminomethyl]-1-ethylpyridinium chloride] | 6.07 | 7.85 |  |  |  |  |  |  |  |  |

Continued, in another order:

| pIC50 [2] | pIC50 [3] | Rate of loss [6] [µg/kg/min] | Rate of loss [7] [µg/kg/min] | Compound | decrease in blood pressure ([1]; PAF 100 ng/kg i.v.) [%] | recovery time to pre-injection blood pressure level ([1]; PAF 500 ng/kg i.v.) [min] | decrease in blood pressure ([1]; PAF 500 ng/kg i.v.) [%] | ED50 [4] [µg/kg] | ED50 [5] [µg/kg] | ED50 [1] [µg/kg] |
| --- | --- | --- | --- | --- | --- | --- | --- | --- | --- | --- |
| 6.46 | 7.22 | 0.88 | 0.92 | CCCCCCCCCCCCCCCCCCNC(=O)OC[C@@]1(C)CC[C@@](C)(COC(=O)N(Cc2cccc[n+]2CC)C(C)=O)O1 (relative stereo) [Example 9, Cis-2-[acetyl[[tetrahydro-2,5-dimethyl-5-[[[[(octadecyl)amino]carbonyl]oxy]methyl]furan-2-yl]methoxycarbonyl]aminomethyl]-1-ethylpyridinium chloride] |  |  |  | 20 | 15 |  |
| 6.26 | 6.25 | 30.0 | 10.21 | CCCCCCCCCCCCCCCCCCNC(=O)OC[C@@]1(C)CC[C@@](C)(COC(=O)NCc2cccc[n+]2CC)O1 (relative stereo) [Example 10, Cis-2-[[[tetrahydro-5-[[[[(octadecyl)amino]carbonyl]oxy]methyl]-2,5-dimethyl-furan-2-yl]methoxycarbonyl]aminomethyl]-1-ethylpyridinium chloride] |  |  |  | 150 | 60 |  |
| 5.66 | 6.35 |  |  | CCCCCCCCCCCCCCCCCCNC(=O)OC[C@@]1(C)CC[C@@](C)(COC(=O)NCc2cc(C)cc(C)[n+]2C)O1 (relative stereo) [Example 11, Cis-2-[[[tetrahydro-2,5-dimethyl-5-[[[[(octadecyl)amino]carbonyl]oxy]methyl]furan-2-yl]methoxycarbonyl]aminomethyl]-1,4,6-trimethylpyridinium chloride] |  |  |  |  |  |  |
| 5.70 | 5.66 |  |  | CCCCCCCCCCCCCCCCCCNC(=O)OC[C@@]1(C)CC[C@@](C)(COC(=O)N(C)Cc2cccc[n+]2C)O1 (relative stereo) [Example 12, Cis-2-[methyl[[tetrahydro-2,5-dimethyl-5-[[[[(octadecyl)amino]carbonyl]oxy]methyl]furan-2-yl]methoxycarbonyl]aminomethyl]-1-methylpyridinium chloride] |  |  |  |  |  |  |
| 7.40 | 8.00 | 0.3 | 0.35 | CCCCCCCCCCCCCCCCCCNC(=O)OCC1(COC(=O)N(Cc2cccc[n+]2CC)C(C)=O)CCCO1 (stereo not shown) [Example 1, 2-[Acetyl[[tetrahydro-2-[[[[(octadecyl)-amino]carbonyl]oxy]methyl]furan-2-yl]-methoxycarbonyl]aminomethyl]-1-ethylpyridinium chloride] |  |  |  | 2.5 | 2.8 | 3 |
| 4.80 | 6.10 |  |  | CCCCCCCCCCCCCCCCCCNC(=O)OCC1(COC(=O)NCc2cccc[n+]2CC)CCCO1 (stereo not shown) [Example 2, 2-[[[Tetrahydro-2-[[[[(octadecyl)amino]carbonyl]oxy]methyl]furan-2-yl]methoxycarbonyl]aminomethyl]-1-ethylpyridinium chloride] |  |  |  |  |  |  |
| 6.52 | 7.70 | 0.66 | 0.65 | CCCCCCCCCCCCCCCCCCNC(=O)OCC1(COC(=O)NCCCCCc2cccc[n+]2CC)CCCO1.[Cl-] (stereo not shown) [Example 3, 2-[5-[[[Tetrahydro-2-[[[[(octadecyl)-amino]carbonyl]oxy]methyl]furan-2-yl]methoxycarbonyl]amino]pentyl]-1-ethylpyridinium chloride] |  |  |  | 5 | 8.5 | 27 |
